Laboratory results from patent US10214519B2, “Phosphatidylinositol 3-kinase inhibitors” (Gilead Sciences, Inc., priority 2016, dated 2019).

Biological target: PI3Kβ (Homo sapiens (Human), UniProt P42338)
Assay: PI3K isoform TR-FRET enzymatic assay (PI3Kβ)
Assay type: biochemical
Details: 2× Km ATP, 30 minutes at 25° C.
Summary of the method: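 Heterodimeric recombinant PI3Kβ was incubated with compound 30 minutes at 25° C. Product was detected by TR-FRET competition with 10 nM labeled PIP3 for 35 nM Eu-GRP-1 PH domain after EDTA stop. Data were normalized to 1 μM wortmannin and DMSO, and IC50 was taken from a four-parameter fit.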

Sequence of PI3Kβ (P42338 whole entry, canonical isoform): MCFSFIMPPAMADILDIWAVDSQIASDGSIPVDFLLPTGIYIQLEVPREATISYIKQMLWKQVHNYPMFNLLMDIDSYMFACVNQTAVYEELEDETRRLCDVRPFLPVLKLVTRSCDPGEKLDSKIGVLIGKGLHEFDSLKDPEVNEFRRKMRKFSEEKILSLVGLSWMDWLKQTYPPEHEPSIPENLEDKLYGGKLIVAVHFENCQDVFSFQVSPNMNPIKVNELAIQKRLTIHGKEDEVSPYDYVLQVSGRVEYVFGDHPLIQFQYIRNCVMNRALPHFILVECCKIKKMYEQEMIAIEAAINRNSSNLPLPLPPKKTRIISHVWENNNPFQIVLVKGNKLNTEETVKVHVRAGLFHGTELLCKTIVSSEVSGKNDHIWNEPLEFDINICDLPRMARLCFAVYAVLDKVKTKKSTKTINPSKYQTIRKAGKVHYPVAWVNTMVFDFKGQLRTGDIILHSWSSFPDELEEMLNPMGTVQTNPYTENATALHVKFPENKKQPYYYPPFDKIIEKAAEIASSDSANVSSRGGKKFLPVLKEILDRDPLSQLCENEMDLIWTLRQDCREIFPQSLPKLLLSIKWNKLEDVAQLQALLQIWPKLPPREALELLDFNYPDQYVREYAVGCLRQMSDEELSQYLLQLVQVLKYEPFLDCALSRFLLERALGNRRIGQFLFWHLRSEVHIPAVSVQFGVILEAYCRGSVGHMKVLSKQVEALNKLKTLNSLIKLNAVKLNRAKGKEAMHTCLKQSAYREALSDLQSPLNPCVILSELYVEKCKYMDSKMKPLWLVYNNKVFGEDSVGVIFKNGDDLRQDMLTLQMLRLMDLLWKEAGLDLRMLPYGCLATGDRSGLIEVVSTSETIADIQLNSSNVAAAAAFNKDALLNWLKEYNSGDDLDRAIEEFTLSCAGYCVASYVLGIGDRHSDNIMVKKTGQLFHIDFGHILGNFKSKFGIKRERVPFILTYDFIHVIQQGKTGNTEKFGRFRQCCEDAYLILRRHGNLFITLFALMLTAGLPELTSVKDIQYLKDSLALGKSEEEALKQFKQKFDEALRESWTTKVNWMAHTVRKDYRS
Sequence of PI3Kβ (P27986 whole entry partner, canonical isoform): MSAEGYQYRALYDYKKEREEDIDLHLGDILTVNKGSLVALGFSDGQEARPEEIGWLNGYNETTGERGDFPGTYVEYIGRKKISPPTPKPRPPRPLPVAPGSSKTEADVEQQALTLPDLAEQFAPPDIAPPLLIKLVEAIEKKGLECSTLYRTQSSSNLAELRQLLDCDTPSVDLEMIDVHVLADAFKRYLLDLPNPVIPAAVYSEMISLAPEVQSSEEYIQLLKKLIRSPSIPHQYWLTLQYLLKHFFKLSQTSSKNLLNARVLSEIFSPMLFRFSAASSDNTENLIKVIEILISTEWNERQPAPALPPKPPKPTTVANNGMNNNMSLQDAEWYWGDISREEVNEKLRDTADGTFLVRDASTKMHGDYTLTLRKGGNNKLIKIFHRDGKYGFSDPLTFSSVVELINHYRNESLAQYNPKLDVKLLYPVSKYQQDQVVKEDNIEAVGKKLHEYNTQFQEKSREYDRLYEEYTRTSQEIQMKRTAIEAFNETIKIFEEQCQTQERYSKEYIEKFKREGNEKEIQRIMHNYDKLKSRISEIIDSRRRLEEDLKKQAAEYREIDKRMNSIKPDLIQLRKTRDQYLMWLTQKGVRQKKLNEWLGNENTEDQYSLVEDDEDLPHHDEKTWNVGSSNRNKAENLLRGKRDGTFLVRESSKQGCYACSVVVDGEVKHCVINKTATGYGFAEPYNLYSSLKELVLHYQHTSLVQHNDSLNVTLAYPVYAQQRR

SMILES	IC50 [nM]
CCCc1nc2c(-c3nnc[nH]3)cc(N3CCOCC3)cc2n1-c1ccnc2cc(F)ccc12 [Example 7, 4-(1-(7-fluoroquinolin-4-yl)-2-propyl-4-(4H-1,2,4-triazol-3-yl)-1H-benzo[d]imidazol-6-yl)morpholine]	31
CCCc1nc2c(-c3nccs3)cc(N3CCOCC3)cc2n1-c1ccnc2c(F)ccc(F)c12 [Example 239, 4-[3-(5,8-difluoroquinolin-4-yl)-2-propyl-7-(1,3-thiazol-2-yl)benzimidazol-5-yl]morpholine]	12
Cc1nc2c(-c3nnc[nH]3)cc(N3CCOCC3)cc2n1-c1cc(-c2cscn2)nc2ccccc12 [Example 103, 4-(2-methyl-1-(2-(thiazol-4-yl)quinolin-4-yl)-4-(4H-1,2,4-triazol-3-yl)-1H-benzo[d]imidazol-6-yl)morpholine]	9
CCCc1nc2c(-c3ncco3)cc(N3CCOCC3)cc2n1-c1ccnc2c(Cl)cc(F)cc12 [Example 222, 4-[3-(8-chloro-6-fluoroquinolin-4-yl)-7-(1,3-oxazol-2-yl)-2-propylbenzimidazol-5-yl]morpholine]	12
CCc1nc2ccccc2c(-n2c(C)nc3c(-c4nnc[nH]4)cc(N4CCOCC4)cc32)c1C [Example 55, 4-[3-(2-ethyl-3-methylquinolin-4-yl)-2-methyl-7-(4H-1,2,4-triazol-3-yl)benzimidazol-5-yl]morpholine]	27
Fc1ccc2c(-n3c(C4CC4)nc4c(-c5nnc[nH]5)cc(N5CCOCC5)cc43)ccnc2c1Cl [Example 38, 4-(1-(8-chloro-7-fluoroquinolin-4-yl)-2-cyclopropyl-4-(4H-1,2,4-triazol-3-yl)-1H-benzo[d]imidazol-6-yl)morpholine]	11
Cc1nnc(-c2cc(N3CCOCC3)cc3c2nc(C)n3-c2cc(-c3cscn3)nc3ccccc23)[nH]1 [Example 104, 4-(2-methyl-4-(5-methyl-4H-1,2,4-triazol-3-yl)-1-(2-(thiazol-4-yl)quinolin-4-yl)-1H-benzo[d]imidazol-6-yl)morpholine]	84
CCc1nc2c(-c3ncc[nH]3)cc(N3CCOCC3)cc2n1-c1ccnc2c(F)ccc(F)c12 [Example 387, 4-(1-(5,8-difluoroquinolin-4-yl)-2-ethyl-4-(1H-imidazol-2-yl)-1H-benzo[d]imidazol-6-yl)morpholine]	13
Fc1ccc(F)c2c(-n3c(CC4CC4)nc4c(-c5cnc(Cl)[nH]5)cc(N5CCOCC5)cc43)ccnc12 [Example 302, 4-[7-(2-chloro-1H-imidazol-5-yl)-2-(cyclopropylmethyl)-3-(5,8-difluoroquinolin-4-yl)benzimidazol-5-yl]morpholine]	24
Fc1ccc(F)c2c(-n3cnc4c(-c5cnc(Cl)[nH]5)cc(N5CCOCC5)cc43)ccnc12 [Example 308, 4-[7-(2-chloro-1H-imidazol-5-yl)-3-(5,8-difluoroquinolin-4-yl)benzimidazol-5-yl]morpholine]	6
CC(C)Cc1nc2c(-c3cnc(Cl)[nH]3)cc(N3CCOCC3)cc2n1-c1ccnc2c(F)ccc(F)c12 [Example 300, 4-[7-(2-chloro-1H-imidazol-5-yl)-3-(5,8-difluoroquinolin-4-yl)-2-(2-methylpropyl)benzimidazol-5-yl]morpholine]	14
Cc1nc2c(-c3nnc[nH]3)cc(N3CCOCC3)cc2n1-c1c(Cl)cnc2ccccc12 [Example 128, 4-[3-(3-chloroquinolin-4-yl)-2-methyl-7-(4H-1,2,4-triazol-3-yl)benzimidazol-5-yl]morpholine]	51
CCCc1nc2c(-c3ccn[nH]3)cc(N3CCOCC3)cc2n1-c1ccnc2c(F)ccc(F)c12 (atropisomer, axis not shown) [Compound 369, 4-(1-(5,8-difluoroquinolin-4-yl)-2-propyl-4-(1H-pyrazol-5-yl)-1H-benzo[d]imidazol-6-yl)morpholine]	> 10000
Cc1nc2c(-c3nnc(N)[nH]3)cc(N3CCOCC3)cc2n1-c1ccnc2c(F)ccc(F)c12 [Example 393, 5-(1-(5,8-difluoroquinolin-4-yl)-2-methyl-6-morpholino-1H-benzo[d]imidazol-4-yl)-4H-1,2,4-triazol-3-amine]	21
CCc1nc2c(-c3nnc[nH]3)cc(N3CCOCC3)cc2n1-c1c(C)cnc2c(C#N)cccc12 [Example 155, 4-(2-ethyl-6-morpholino-4-(4H-1,2,4-triazol-3-yl)-1H-benzo[d]imidazol-1-yl)-3-methylquinoline-8-carbonitrile]	20

Now from value to compound:

IC50 [nM]	SMILES
2600	Cc1nc2c(-c3ccc(C#N)s3)cc(N3CCOCC3)cc2n1-c1ccnc2c(Cl)cccc12 [Example 273, 5-[1-(8-chloroquinolin-4-yl)-2-methyl-6-morpholin-4-ylbenzimidazol-4-yl]thiophene-2-carbonitrile]
21	CCc1nc2c(-c3cnc(C)[nH]3)cc(N3CCOCC3)cc2n1-c1ccnc2c(Cl)cccc12 [Example 245, 4-[3-(8-chloroquinolin-4-yl)-2-ethyl-7-(2-methyl-1H-imidazol-5-yl)benzimidazol-5-yl]morpholine]
14	CCc1nc2c(-c3nnc[nH]3)cc(N3CCOCC3)cc2n1-c1ccnc2c(F)cccc12 [Example 139, 4-[2-ethyl-3-(8-fluoroquinolin-4-yl)-7-(4H-1,2,4-triazol-3-yl)benzimidazol-5-yl]morpholine]
3	Clc1cccc2c(-n3cnc4c(-c5ncco5)cc(N5CCOCC5)cc43)ccnc12 [Example 224, 4-[3-(8-chloroquinolin-4-yl)-7-(1,3-oxazol-2-yl)benzimidazol-5-yl]morpholine]
380	Cc1nc(-c2cc(N3CCOCC3)cc3c2nc(C)n3-c2ccnc3c(Cl)cccc23)sc1C [Example 216, 4-[3-(8-chloroquinolin4-yl)-7-(4,5-dimethyl-1,3-thiazol-2-yl)-2-methylbenzimidazol-5-yl]morpholine]
7	Cc1nc2c(-c3cnn[nH]3)cc(N3CCOCC3)cc2n1-c1ccnc2c(Cl)cccc12 [Example 329, 4-(1-(8-chloroquinolin-4-yl)-2-methyl-4-(1H-1,2,3-triazol-5-yl)-1H-benzo[d]imidazol-6-yl)morpholine]
370	Cc1nc2c(-c3cnc(Cl)[nH]3)cc(N3CCOCC3)cc2n1-c1ccnc2ccccc12 [Example 306, 4-[7-(2-chloro-1H-imidazol-5-yl)-2-methyl-3-quinolin-4-ylbenzimidazol-5-yl]morpholine]
12	CCc1nc2c(-c3cnc(Cl)[nH]3)cc(N3CCOCC3)cc2n1-c1ccnc2c(Cl)c(F)ccc12 [Example 295, 4-[3-(8-chloro-7-fluoroquinolin-4-yl)-7-(2-chloro-1H-imidazol-5-yl)-2-ethylbenzimidazol-5-yl]morpholine]
14	Cc1nc2c(-c3cnc[nH]3)cc(N3CCOCC3)cc2n1-c1ccnc2c(F)cccc12 [Example 208, 4-[3-(8-fluoroquinolin-4-yl)-7-(1H-imidazol-5-yl)-2-methylbenzimidazol-5-yl]morpholine]
120	CC(C)(C)c1nc2c(-c3nnc[nH]3)cc(N3CCOCC3)cc2n1-c1ccnc2c(Cl)cccc12 [Example 20, 4-(2-(tert-butyl)-1-(8-chloroquinolin-4-yl)-4-(4H-1,2,4-triazol-3-yl)-1H-benzo[d]imidazol-6-yl)morpholine]
7000	Cc1nc2c(-c3ccnn3C)cc(N3CCOCC3)cc2n1-c1ccnc2c(Cl)cccc12 [Example 269, 4-[3-(8-chloroquinolin-4-yl)-2-methyl-7-(2-methylpyrazol-3-yl)benzimidazol-5-yl]morpholine]
14	Clc1cccc2c(-n3c(-c4ccccn4)nc4c(-c5nnc[nH]5)cc(N5CCOCC5)cc43)ccnc12 [Example 115, 4-[3-(8-chloroquinolin-4-yl)-2-pyridin-2-yl-7-(4H-1,2,4-triazol-3-yl)benzimidazol-5-yl]morpholine]
44	Cn1cc(-c2nc3c(-c4nnc[nH]4)cc(N4CCOCC4)cc3n2-c2ccnc3c(Cl)cccc23)cn1 [Example 121, 4-[3-(8-chloroquinolin-4-yl)-2-(1-methylpyrazol-4-yl)-7-(4H-1,2,4-triazol-3-yl)benzimidazol-5-yl]morpholine]
720	Cc1nc2c(-c3nnc(N)s3)cc(N3CCOCC3)cc2n1-c1ccnc2cc(F)ccc12 [Example 165, 5-(1-(7-fluoroquinolin-4-yl)-2-methyl-6-morpholino-1H-benzo[d]imidazol-4-yl)-1,3,4-thiadiazol-2-amine]
17	Cc1nc2c(-c3nnc[nH]3)cc(N3CCOCC3)cc2n1-c1ccnc2ccccc12 [Example 106, 4-[2-methyl-3-quinolin-4-yl-7-(4H-1,2,4-triazol-3-yl)benzimidazol-5-yl]morpholine]
770	Cc1nc2c(-c3ccn(S(C)(=O)=O)c3)cc(N3CCOCC3)cc2n1-c1ccnc2c(Cl)cccc12 [Example 264, 4-[3-(8-chloroquinolin-4-yl)-2-methyl-7-(1-methylsulfonylpyrrol-3-yl)benzimidazol-5-yl]morpholine]
120	Cc1nc2c(-c3cn(C)cn3)cc(N3CCOCC3)cc2n1-c1ccnc2c(Cl)cccc12 [Example 203, 4-[3-(8-chloroquinolin-4-yl)-2-methyl-7-(1-methylimidazol-4-yl)benzimidazol-5-yl]morpholine]
417	Cc1nc2c(-c3ccccn3)cc(N3CCOCC3)cc2n1-c1ccnc2c(Cl)cccc12 [Example 323, 4-[3-(8-chloroquinolin-4-yl)-2-methyl-7-pyridin-2-ylbenzimidazol-5-yl]morpholine]
11	Cc1nc2c(-c3cnc[nH]3)cc(N3CCOCC3)cc2n1-c1ccnc2c(Cl)cccc12 [Example 266, 4-[3-(8-chloroquinolin-4-yl)-7-(1H-imidazol-5-yl)-2-methylbenzimidazol-5-yl]morpholine]
4	Cc1csc(-c2cc(N3CCOCC3)cc3c2nc(C)n3-c2ccnc3c(Cl)ccc(F)c23)n1 [Example 238, 4-[3-(8-chloro-5-fluoroquinolin-4-yl)-2-methyl-7-(4-methyl-1,3-thiazol-2-yl)benzimidazol-5-yl]morpholine]
